Laboratory results taken from patent US11207301B2, “Sphingosine 1 phosphate receptor agonists for neuroprotection” (RECEPTOS LLC, priority 2017, dated 2021).

Tests used:
Format in all cases: cell-based
[1] = tested on: AKT phosphorylation in primary rat astrocytes; assay: AKT phosphorylation in primary rat astrocytes (MSD pAKT assay); conditions: Astrocyte, 10 min, 10-minute exposure, mean of n=4
Protocol: (§1) For the experiments using rat primary astrocytes, eight-point concentration-response curves were generated for AKT and ERK phosphorylation in primary rat astrocytes cultures in response to a 10-minute treatment with ozanimod (100 nM-46 pM), Compound 3 (10 nM-5 pM), Compound 1 (10 nM-5 pM), or FTY720-P (10 nM-5 pM). Phosphorylation of AKT and ERK was quantified using Meso Scale Discovery assay kits (MSD Mutli-Spot Phopho-AKT (Ser473) Assay Kit and MSD Multi-Spot MAP Kinase Phosphoprotein Assay Whole Cell Lysate Kit) and imaging platform. AKT and ERK phosphorylation within treated astrocytes were assessed as the mean change in signal intensity compared to DMSO vehicle and the half maximal effective concentration (EC50) was determined using non-linear regression.
(§2) Embryonic day18 (E18) rat cortices were purchased from BrainBits LLC. (Springfield, Ill.) and were cultured according to the supplier's protocol. Briefly, cortices were incubated at 37° C. for 10 minutes in activated papain solution before trituration in hibernation medium containing B27 supplement using a modified siliconized glass Pasteur pipette. The cell suspension was centrifuged at 1100×g for 1 minute at room temperature (RT). The cell pellet was then resuspended in NbAstro medium (BrainBits LLC.) and the live cell density was assessed using a cell counter. Primary cells were plated at a density of 7500 cells/cm2 in T75 tissue culture flasks coated with poly-D-lysine (PDL) in a total volume of 12 mL of NbAstro media, and incubated for 10-14 days at 37° C. 5% CO2. After 10-14 days, primary astrocytes in passage 0 (P0) that had reached confluency in the T75 flasks were detached using TrypLE detachment reagent, pelleted at 300×g, and plated into poly-d-lysine coated T225 flasks in 20 mL of NbAstro media, and incubated for another 7 days at 37° C. 5% CO2. After 7 days, primary P1 astrocytes in confluent T225 flasks were detached using TrypLE detachment reagent, pelleted at 300×g, and plated intopoly-d-lysine coated 96-well plates at 10,000 cells per well in 200 μL of NbAstro media, and incubated for 7 days at 37° C. 5% CO2. After 7 days, P2 primary astrocytes were utilized for pAKT and pERK assays.
(§3) The pAKT (phosphorylated AKT) assay was performed according to the manufacturer's protocol. Briefly, MSD pAKT plates were blocked for 1-2 hours by adding 150 μL of blocker A prepared in 1× Tris wash buffer. […] Following antibody incubation, plates were washed three times with 150 μL of 1× Tris wash buffer and 1× read buffer (150 μL/well) was added. Finally, plates were read in the MSD imager platform to assess pAKT levels.
(§4) AKT and ERK phosphorylation data were analyzed by non-linear regression (GraphPad Prism, version 6) to determine the EC50 values.

[2] = tested on: ERK phosphorylation in primary rat astrocytes; assay: ERK phosphorylation in primary rat astrocytes (MSD pERK assay); conditions: Astrocyte, 10 min, 10-minute exposure, mean of n=3
Protocol: as §1, §2
as §3, with “The pERK” for “The pAKT”, “(phosphorylated ERK)/pMAPkinase” for “(phosphorylated AKT)”, “MSD pERK/pMAPkinase” for “MSD pAKT”, “Finally, the” for “Finally,”, “assess the pERK” for “assess pAKT”
as §4

[3] = tested on: AKT phosphorylation in primary mouse astrocytes; assay: AKT phosphorylation in primary mouse cortical astrocytes (AlphaLISA SureFire Ultra); conditions: Astrocyte, 10 min, 10-minute exposure, mean of n=3
Protocol: For the experiments using mouse and human primary astrocytes, ten-point concentration-response curves (90 nM-4.57 pM or 30 nM-1.52 pM) were generated for AKT and/or ERK phosphorylation in primary human and mouse cortical astrocytic cultures in response to a 10-minute treatment with ozanimod, Compound 3, Compound 1, or FTY720-P. AKT and ERK phosphorylation were quantified using AlphaLISA SureFire Ultra Assay kits and the EnVision Plate Reader. AKT and ERK phosphorylation within treated astrocytes were expressed as the mean change in signal intensity compared to the dimethyl sulfoxide (DMSO) vehicle and the half maximal effective concentration (EC50) was determined using non-linear regression.
Timed pregnant (E16) C57BL/6J female mice arrive to the test facility on a weekly basis and were housed and cared for according to appropriate protocols for this model. Primary mouse cortical astrocytes are harvested from P0-P2 pups. The newly born animals were deeply anesthetized on ice, decapitated, and the brains were rapidly removed and stored in ice-cold NbAstro media (BrainBits, LLC). Cells were dissociated from freshly dissected cortices by mechanical disruption in the presence of trypsin and DNase. Cells were put into a PDL coated T75 tissue culture flask containing 16 mL NbAstro Media and incubated at 37° C. 5% CO2. Once the mouse astrocytes had reached confluency in the T75 flask, they were detached using TripLE detachment reagent, pelleted at 300×g, expanded into two T225 PDL coated tissue culture flasks containing 40 mL of NbAstro and incubated at 37° C. 5% CO2. Once the astrocytes reached confluency in the T225 flasks they were detached using TrypLE detachment reagent, pelleted at 300×g, plated into PDL coated 96-well plates at a density of 10,000 cells per well in 200 μL NbAstro and incubated at 37° C. 5% CO2. Half of the media was replenished every 3-4 days. After 5-7 days of incubation, the P2 mouse astrocyte plates were utilized for the pERK and pAKT assays.
Cell lysis and detection of pAKT were performed according to the PerkinElmer AlphaLISA SureFire Ultra pAKT1/2/3 ([…]) assay protocol. Astrocytes were lysed in the 96-well plate following a 10 minute incubation with compounds with shaking at room temperature (RT). The astrocytic lysates (10 μL/well) were transferred into a 384-well OptiPlate. As specified by the assay protocol, an acceptor bead mix and a donor bead mix (5 μL/well for each) were added to the plate under subdued light. […] The plates were read on the EnVision Plate Reader to assess the pAKT levels.
The AKT and ERK phosphorylation data, collected by a Perkin Elmer EnVision Microplate Reader, was analyzed by non-linear regression (GraphPad Prism, version 7.03) to determine the EC50 values.

Compound | EC50 [1] | EC50 [2] | EC50 [3]
CC(C)Oc1ccc(-c2nc(-c3cccc4c3CCC4=O)no2)cc1C#N [Compound 1, 2-isopropoxy-5-(3-(1-oxo-2,3-dihydro-1H-inden-4-yl)-1,2,4-oxadiazol-5-yl)benzonitrile] | 0.66 nM | 0.29 nM | 0.49 nM
CC(C)Oc1ccc(-c2nc(-c3cccc4c3CC[C@@H]4NCCO)no2)cc1C#N [Ozanimod] | 2.03 nM | 0.8 nM | 0.9 nM
